Test results published in US20070032477A1, “Pteridine derivatives useful for making pharmaceutical compositions” (priority 2003, published 2007).

Tested on: LPS-induced shock in C3H mice
Assay: Model of protection against septic shock (LPS)
Format: in vivo
Conditions: 100 μg LPS i.p., 20 mg/kg/day i.p. at time of injection and 24 hours later
Method: As a control group, 4 sham treated (saline injection) C3H mice being injected intraperitoneously with 100 μg lipopolysaccharide (hereinafter LPS) per mouse, all died within 1 to 3 days after injection.

COc1ccc(-c2cnc3nc(N)nc(N4CCN(C(=O)COc5ccccc5)CC4)c3n2)cc1OC [Example 17, 2-amino-4-[(N-phenoxyacetyl)-piperazin-1-yl]-6-(3,4-dimethoxy-phenyl)pteridine]
protection from acute shock related mortality: all mice were protected from acute shock related mortality
